Reference: ChEMBL document CHEMBL1201862, “PubChem BioAssay data set” (2004)
Calls of active or inactive are those of the source.

Key:
[1] = molecular target: Mitogen-activated protein kinase 10 (Homo sapiens, UniProt P53779); assay: Dose response biochemical screening assay for inhibitors of c-Jun N-Terminal Kinase 3 (JNK3). [Related pubchem assays: 746 ]
Leucine aminopeptidase = molecular target: T1, Leucine aminopeptidase (Plasmodium falciparum 3D7, UniProt Q8IL11); assay: P. falciparum M17LAP inhibitors, primary screen, biochemical, fluorogenic H-Leu-NHMec substrate, 1536-well (AID 1619); type: functional
T1 sequence (Q8IL11 whole entry): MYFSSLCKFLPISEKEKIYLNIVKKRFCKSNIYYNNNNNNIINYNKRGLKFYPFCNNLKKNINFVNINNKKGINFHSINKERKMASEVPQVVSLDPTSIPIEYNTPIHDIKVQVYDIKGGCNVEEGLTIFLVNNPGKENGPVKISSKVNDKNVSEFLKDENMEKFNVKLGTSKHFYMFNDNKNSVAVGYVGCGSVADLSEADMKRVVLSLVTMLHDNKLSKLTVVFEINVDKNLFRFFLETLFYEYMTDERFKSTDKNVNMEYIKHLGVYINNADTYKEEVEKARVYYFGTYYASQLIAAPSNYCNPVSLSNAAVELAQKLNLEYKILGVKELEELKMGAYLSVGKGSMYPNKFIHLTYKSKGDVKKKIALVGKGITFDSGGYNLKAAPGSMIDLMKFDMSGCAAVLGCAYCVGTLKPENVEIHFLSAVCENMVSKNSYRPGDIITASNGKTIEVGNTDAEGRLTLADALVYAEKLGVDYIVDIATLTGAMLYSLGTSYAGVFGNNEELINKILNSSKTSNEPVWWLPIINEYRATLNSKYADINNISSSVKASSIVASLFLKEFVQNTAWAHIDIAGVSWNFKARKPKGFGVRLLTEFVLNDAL

Major prion protein = Major prion protein (Homo sapiens, UniProt P04156); type: functional, cell-based
cells [2] = assay: cells
[3] = molecular target: T2, Low molecular weight phosphotyrosine protein phosphatase (Homo sapiens, UniProt P24666); assay: inhibition of human LMPTP enzyme activity – biochemical, absorbance, pNPP substrate, LMPTP-A isoform, set 2, orthogonal assay, dose response (AID 743308); type: functional
T2 sequence (P24666 whole entry): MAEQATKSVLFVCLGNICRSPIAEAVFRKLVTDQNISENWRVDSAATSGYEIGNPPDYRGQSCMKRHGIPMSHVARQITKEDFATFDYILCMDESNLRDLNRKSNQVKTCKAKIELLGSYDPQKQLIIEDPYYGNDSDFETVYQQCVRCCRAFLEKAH

[4] = molecular target: T2, Low molecular weight phosphotyrosine protein phosphatase; assay: inhibition of LMPTP-A enzymatic activity – biochemical, OMFP substrate, fluorescence intensity, set 2, dose response (AID 743307); type: functional
[5] = Luminescent dose response cell-based high throughput screening assay for inhibitors of the Janus kinase 2 mutant JAK2V617F. [Related pubchem assays: 1446 (Primary screen.), 1521 (Confirmation assay.), 1486 (Counter screen.)]; type: functional
[6] = molecular target: Heat shock protein HSP 90-alpha (Homo sapiens, UniProt P07900); type: functional, organism-based
[7] = HepG2 cell cytotoxicity, dose response, cytotoxicity control for non-replicating M. tuberculosis project (AID 489018); type: functional; conditions: Mycobacterium tuberculosis
INS1 = assay: INS-1E survival protection against cytokine death – cell-based, luminescence, retest, dose response (AID 449756); type: functional; conditions: Rattus norvegicus;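 also: cell death triggered by IL-1 beta plus TNF-alpha plus IFN-gamma mixture; protective hits raise ATP signal compared with cytokine alone wells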
[8] = NIH-3T3 fibroblast cytotoxicity, dose response, cytotoxicity control, cell-based, fluorescence, Alamar Blue, secondary assay (AID 2327); type: functional;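 also: NIH-3T3 mouse fibroblasts cultured with fluconazole at 8 µg/mL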
Vero [9] = assay: cells; type: functional; conditions: Chlorocebus sabaeus
cells [10] = type: functional
[11] = THP-1 cell cytotoxicity, dose response, cytotoxicity control for non-replicating M. tuberculosis project (AID 489025); type: functional
[12] = fluconazole-exposed Candida albicans growth modulators – fluorescence, retest, confirmation (AID 2467); type: functional, cell-based
[13] = Vero E6 cell cytotoxicity, dose response, cytotoxicity control for non-replicating M. tuberculosis project, secondary assay (AID 492998); type: functional, VeroE6; conditions: Vero C1008
NADPH oxidase 1 = NADPH oxidase 1 (Homo sapiens, UniProt Q9Y5S8); assay: Late-stage luminescence-based cell-based dose response assay to identify inhibitors of NADPH oxidase 1 (NOX1): Purchased analogs 2.; type: functional
[14] = molecular target: Serine/threonine-protein phosphatase (Homo sapiens, UniProt Q9BPW0); assay: inhibition of protein phosphatase 5 activity – biochemical, fluorescence, dose response (AID 2395)
[15] = molecular target: Serine/threonine-protein phosphatase PP1-alpha catalytic subunit (Homo sapiens, UniProt P62136); assay: inhibition of protein phosphatase 1 activity – biochemical, fluorescence, dose response (AID 2394)
Vero [16] = assay: mammalian cell viability reduction – secondary assay, cytotoxicity control for West Nile virus antiviral project, dose response (AID 1650); type: functional; conditions: Chlorocebus sabaeus
[17] = molecular target: T3, Microphthalmia-associated transcription factor (Homo sapiens, UniProt O75030); assay: reducers of TRPM1 reporter luminescence, concentration series – cell-based, SK-MEL-5, cherry-picked, set 3, MITF inhibitor project, dose response (AID 493073); type: functional;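 also: SK-MEL-5 melanoma cells with luciferase driven by the MITF target TRPM1 promoter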
T3 sequence (O75030 whole entry): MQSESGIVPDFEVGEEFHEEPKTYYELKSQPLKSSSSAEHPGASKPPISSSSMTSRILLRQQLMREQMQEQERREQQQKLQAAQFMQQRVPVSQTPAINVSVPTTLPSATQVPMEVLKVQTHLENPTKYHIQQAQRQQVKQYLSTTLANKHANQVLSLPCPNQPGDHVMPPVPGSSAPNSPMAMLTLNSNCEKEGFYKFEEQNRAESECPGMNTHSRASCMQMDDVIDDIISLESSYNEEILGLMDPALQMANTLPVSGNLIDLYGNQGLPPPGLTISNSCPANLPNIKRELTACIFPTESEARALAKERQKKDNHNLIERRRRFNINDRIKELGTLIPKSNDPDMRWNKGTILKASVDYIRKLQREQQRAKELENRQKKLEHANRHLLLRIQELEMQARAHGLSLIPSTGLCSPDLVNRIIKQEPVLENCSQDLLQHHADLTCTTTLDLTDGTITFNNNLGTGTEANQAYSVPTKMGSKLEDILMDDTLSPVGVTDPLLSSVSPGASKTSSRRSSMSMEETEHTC

[18] = viability of uninfected HEp-2 cells – cell-based, HTS, cytotoxicity control for RSV inhibitor project, dose response (AID 2410); type: functional; conditions: human respiratory syncytial virus
Vero [19] = assay: inhibition of WNV-induced cytopathic effect – cell-based, CPE readout (AID 1621); type: functional; conditions: Chlorocebus sabaeus
Vero [20] = assay: cells; type: functional, cell-based; conditions: Chlorocebus sabaeus
[21] = molecular target: G-protein coupled receptor 35 (Homo sapiens, UniProt Q9HC97); assay: SAR Analysis for the identification of Selective Antagonists of ERK1/2 Activity in GPR35-Overexpressing U2OS Cells. [Related pubchem assays: 2079, 2058 ]; type: functional, cell-based
[22] = molecular target: Tyrosine-protein phosphatase non-receptor type 12 (Homo sapiens, UniProt Q05209); assay: SAR Selectivity Analysis of small molecule inhibitors of PEST using pCAP in a fluorescence assay. [Related pubchem assays (depositor defined):AID1779, AID1784, AID2135]; type: functional
[23] = molecular target: T4, Tyrosine-protein phosphatase non-receptor type 22 (Homo sapiens, UniProt Q9Y2R2); assay: inhibition of lymphoid tyrosine phosphatase LYP – biochemical, pCAP fluorogenic substrate, fluorescence, set 3, SAR follow-up (AID 449727); type: functional
T4 sequence (Q9Y2R2 whole entry): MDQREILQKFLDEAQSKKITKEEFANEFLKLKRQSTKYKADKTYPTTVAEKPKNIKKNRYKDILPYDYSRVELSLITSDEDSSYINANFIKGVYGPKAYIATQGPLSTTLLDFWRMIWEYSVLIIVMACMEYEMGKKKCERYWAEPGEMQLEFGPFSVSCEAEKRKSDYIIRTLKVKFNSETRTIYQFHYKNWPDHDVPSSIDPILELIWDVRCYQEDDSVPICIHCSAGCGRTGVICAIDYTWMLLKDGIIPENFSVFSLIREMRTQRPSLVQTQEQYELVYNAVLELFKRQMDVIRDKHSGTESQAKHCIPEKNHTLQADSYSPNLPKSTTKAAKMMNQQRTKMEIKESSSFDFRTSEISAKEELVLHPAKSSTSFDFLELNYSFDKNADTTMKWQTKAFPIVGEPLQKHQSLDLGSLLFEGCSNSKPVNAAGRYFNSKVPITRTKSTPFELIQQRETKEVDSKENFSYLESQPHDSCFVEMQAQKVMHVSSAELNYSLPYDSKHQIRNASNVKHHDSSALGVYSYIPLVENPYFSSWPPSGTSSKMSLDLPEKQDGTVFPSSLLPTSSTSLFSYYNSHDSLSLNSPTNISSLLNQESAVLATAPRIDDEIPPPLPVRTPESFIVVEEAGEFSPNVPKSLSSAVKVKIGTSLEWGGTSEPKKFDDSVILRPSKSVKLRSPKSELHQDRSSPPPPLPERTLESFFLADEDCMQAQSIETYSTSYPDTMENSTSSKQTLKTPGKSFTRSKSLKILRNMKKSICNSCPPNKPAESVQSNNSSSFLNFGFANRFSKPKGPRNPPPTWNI

[24] = molecular target: T4, Tyrosine-protein phosphatase non-receptor type 22; assay: SAR LYP1 Fluorescent Assay using OMFP substrate for In Vitro dose response studies - Set 3. [Related pubchem assays (depositor defined):AID1779, AID1784, AID2140, AID2686]; type: functional
[25] = molecular target: G-protein coupled receptor 55 (Homo sapiens, UniProt Q9Y2T6); assay: blockers of GPR55 signalling, imaged – imaging, image-based, counter-screen for GPR35 antagonist project, SAR follow-up (AID 2397); type: functional
[26] = molecular target: T5, Tyrosine-protein phosphatase non-receptor type 7 (Homo sapiens, UniProt P35236); assay: inhibition of hematopoietic tyrosine phosphatase HePTP – biochemical, set 2, SAR follow-up (AID 449736); type: functional
T5 sequence (P35236 whole entry): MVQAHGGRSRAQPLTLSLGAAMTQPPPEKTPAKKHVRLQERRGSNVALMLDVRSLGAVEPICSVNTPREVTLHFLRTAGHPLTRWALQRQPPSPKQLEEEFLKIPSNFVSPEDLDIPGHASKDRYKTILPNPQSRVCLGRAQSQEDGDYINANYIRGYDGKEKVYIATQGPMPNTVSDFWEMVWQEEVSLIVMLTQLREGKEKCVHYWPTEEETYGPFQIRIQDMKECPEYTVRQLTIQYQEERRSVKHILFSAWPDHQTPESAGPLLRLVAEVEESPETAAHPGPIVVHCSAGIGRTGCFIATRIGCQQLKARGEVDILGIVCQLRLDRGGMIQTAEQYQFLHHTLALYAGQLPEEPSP

Ephrin type-A receptor 4 = Ephrin type-A receptor 4 (Mus musculus, UniProt Q03137); assay: EphA4 ligand-binding antagonists – biochemical, colorimetric, mouse EphA4, primary screen (AID 689); type: functional

In the case of `N#Cc1c(O)nc(SCC(=O)Nc2cccc(Cl)c2)nc1-c1ccco1`, the IC50 [1] was 29.7 µM (not active), the IC50 (Leucine aminopeptidase) was 2.5 µM (active) and the IC50 (Major prion protein) was 1.69 µM (active). The IC50 (cells [2]) was > 138 µM (inactive).
For `c1ccc(-c2nc(N3CCCC3)c3ccccc3n2)cc1`, the IC50 [3] was > 80 µM (inactive) and the IC50 [4] was 42.1 µM (inactive).
For `COc1cccc(F)c1C(C[N+](=O)[O-])c1c(N)n(C)c(=O)n(C)c1=O` (configuration not stated), the IC50 [5] was 1.06 µM (active), the AC50 [6] was 3.91 µM (active) and the CC50 [7] was 16.2 µM (active). For the same compound, the AC50 (INS1) was 7.85 µM (active), the EC50 [8] was 5.27 µM (active) and the CC50 (Vero [9]) was 8.24 µM (active). For the same compound, the IC50 (cells [10]) was 5.94 µM (active), the CC50 [11] was 7.28 µM (active) and the EC50 [12] was 0.779 µM (active). For the same compound, the CC50 [13] was 4.73 µM (active).
In the case of `Fc1nc(F)c(F)c(N/N=C/c2ccc(Br)cc2)c1F`, the IC50 (NADPH oxidase 1) was > 17 µM (not active).
For `COc1ccc(Cn2c(N)c(C(=O)NCc3ccco3)c3nc4ccccc4nc32)cc1OC`, the IC50 [14] was 46.5 µM (not active) and the IC50 [15] was > 67 µM (not active).
For `NCCCNc1nc(N)c([N+](=O)[O-])c(NC2CCCCC2)n1`, the CC50 (Vero [16]) was 13.4 µM (active), the AC50 [17] was 6.36 µM (active) and the CC50 [18] was 18.2 µM (active). The IC50 (Vero [19]) was 8.89 µM (active), the CC50 (Vero [9]) was 11.6 µM (active) and the IC50 (Vero [20]) was 6 µM (active).
In the case of `CCOC(=O)c1ccc(NC(=O)CCCN2C(=O)/C(=C/c3ccc(C)cc3)SC2=S)cc1`, the IC50 [21] was 21.4 µM (not active), the IC50 [22] was 96.4 µM (active) and the IC50 [23] was > 100 µM (inactive). The IC50 [24] was > 100 µM (inactive), the IC50 [25] was > 32 µM (inactive) and the IC50 [26] was > 100 µM (inactive).
For `Cc1cc(C=C2C(=O)N(C)C(=S)N(C)C2=O)c(C)n1C1CCCCC1`, the IC50 (Ephrin type-A receptor 4) was 5.14 µM (active).
